This note sets out measurements from patent US20250222011A1, “DRUG TARGET FOR INHIBITING TUMOR, USE, AND ORAL DRUG” (CHI BIOTECH CO., LTD., priority 2024, published 2025).

SMILES strings stand for the structures.

What all share (type): cell-based
For assay [1], the system named is lung adenocarcinoma cells H1299. The experiment in a line: Apoptosis by Annexin V and propidium iodide staining, flow cytometry. The conditions noted are these: 0.5 mg/mL ATCA, P<0.05, n=4. An excerpt:
(§1) In the experiment of ATCA inducing apoptosis in lung cancer cells, Annexin V and propidium iodide were used to stain the cancer cells and then detected by flow cytometry.
On the technique in general: Flow cytometry measures light scatter and fluorescence of single cells or particles in a stream.

In assay [2] the test system is lung adenocarcinoma cells A549. Described as above. The conditions noted are these: 0.5 mg/mL ATCA, P<0.05, n=4.
Excerpt: as §1

For a further assay, the system named is polyribosomes. The experiment in a line: Polysome profiling (cell translation initiation efficiency). The conditions noted are these: 1 mg/mL, FIG. 5. The procedure: Polysome profiling: cells were plated in a 75 T flask with 2 million cells per flask and allowed to adhere for 24 h, and the ACTA was added to the experimental group to make a concentration of the working solution at 1 mg/mL. The control group was replaced with a new medium. Samples were collected after 24 h and 48 h of ATCA treatment. The medium was aspirated, the samples were washed twice with PBS, and 2 mL of Lysis Buffer (RB Buffer, 1% Ttiton X-100, and 10 μg/μL cycloheximide) was added to allow lysis for 30 min on ice, and a resulting lysate was pipetted into an RNase-free EP tube. […] After centrifugation for 4 h and 10 min at 4° C. and 25,400 rpm, high-performance liquid chromatography (HPLC) was conducted to allow relative quantitative analysis of polyribosomes, monoribosomes, and large and small subunits of ribosomes.

A further assay has as its system HER2. Nature of the assay: Western blotting of HER2 expression after ATCA treatment. The conditions noted are these: FIG. 4.
For another assay, the system named is ovarian cancer cells. Nature of the assay: Apoptosis of ovarian cancer cells (other experiments).
A further assay has as its system phosphorylated EIF2S1. Nature of the assay: Western blotting detection of EIF2A phosphorylation. The conditions noted are these: 1 mM of ATCA for 48 h, FIG. 3. The procedure:
Western Blotting method: the sample and molecular weight standard of pre-stained protein were loaded onto an SDS-PAGE gel (10 cm×10 cm) to allow electrophoresis at 100 V for 40 min. After treating for 1 h at 100 V, 230 mA, the protein in SDS-PAGE was transferred to a nitrocellulose membrane. After transfer, the nitrocellulose membrane was washed with 25 mL of TBS for 5 min at room temperature. The nitrocellulose membrane was placed in 25 mL of blocking buffer (TBST, 5% skim milk) and incubated at room temperature for 1 h. The membrane was washed three times with 15 mL TBST, 5 min each time. The membrane and phosphorylated EIF2S1 primary antibody (diluted at 1:1500) were placed in 10 mL of a primary antibody dilution buffer and incubated overnight at 4° C. with gentle shaking at certain intervals. The membrane was washed three times with 15 mL TBST, 5 min each time. A rabbit secondary antibody was prepared with 5% skim milk at a ratio of 1:2000 and incubated at room temperature for 1.5 h. The membrane was washed three times with 15 mL TBST, 5 min each time. The membrane was incubated with 10 mL of LumiGLO® (0.5 mL 20× LumiGLO®, 0.5 mL 20× peroxide, and 9.0 mL purified water) at room temperature for 1 min with gentle agitation at certain intervals. The excess developer on the membrane was drained (no drying), wrapped in plastic film, and then developed with a BIO-RAD developer.
On the technique in general: In western blotting, separated proteins are transferred to a membrane and probed.

Turning to `O=C(O)C1=CC(=C(c2ccc(O)c(C(=O)O)c2)c2ccc(O)c(C(=O)O)c2)C=CC1=O` [ATCA, aurintricarboxylic acid], the “apoptosis of H1299 cells” value in assay [1] was “significant apoptosis”. Also, the “apoptosis of A549 cells” value in assay [2] was “significant apoptosis”. Also, the polysome distribution curve entry in the assay with polyribosomes (24 h after adding the drug) is on record as “did not change much”. Moreover, in the assay on polyribosomes (48 h after adding the drug), the polyribosome fraction result is listed as “significantly reduced”. In addition, in the assay with polyribosomes, the translation elongation result is on record as “did not affect translation elongation”. For the same compound, in the assay with HER2, the HER2 expression entry is recorded as “downregulation”. Further, in the assay with ovarian cancer cells, the “apoptosis of ovarian cancer cells” value is on record as “induce apoptosis”. Further, the EIF2S1 phosphorylation abundance entry with phosphorylated EIF2S1 is “did not affect its phosphorylation abundance”.
